Measured values as given in patent US20100003217A1, “Compounds and Pharmaceutical Compositions for the Treatment of Viral Infections” (priority 2008, published 2010).
Values joined by “and” are separate entries in the source; they are usually repeats but may differ in a detail not shown here. Identical values can stand only once.

Legend:
[1] = Rat plasma pharmacokinetics of total radioactivity after [^14C]-Compound 1; assay type: in vivo, male Sprague-Dawley rats; details: for Plasma total radioactivity concentration, Mean: group mean; for Plasma total radioactivity concentration: individual rats; for AUC0-24 of plasma total radioactivity: from average concentrations
Experimental: A preliminary rat metabolism study was conducted with radiolabeled Compound 1. The compound was labeled with [^14C] in the C-8 position of the guanine moiety. The objectives of the study were to determine, 1) the plasma pharmacokinetics of total radioactivity, 2) the time-course of total radioactivity and the amount of 2′-C-methyl guanosine-5′-TP in liver, 3) the major route of excretion, and 4) the metabolic profile in excreta, liver, and plasma.
Isotopically diluted [^14C]-Compound 1 was administered intravenously to male Sprague-Dawley rats at 50 mg/kg or by oral gavage at 100 mg/kg.
The plasma concentration-time data for total radioactivity was analyzed using Microsoft® Office Excel 2003 to obtain the area under the concentration-time curve (AUC). AUC0-24 (area under the concentration-time curve from 0 to 24 h after dosing) was calculated using the linear trapezoidal rule and nominal sampling times. For the IV dose group, concentration at time zero was extrapolated from the concentration data for the first two time points. The maximum (peak) plasma concentrations (Cmax) and the time to peak concentrations (tmax) were the observed values. Descriptive statistics were prepared in Excel.
Radioanalyses of plasma samples were conducted. The plasma concentration data for total radioactivity expressed as μg equivalents/mL are summarized below: […]

[2] = Metabolite profile in rat urine; assay type: in vivo, male Sprague-Dawley rats; details: for % AD (percent of administered dose) / % HPLC (percent of HPLC peak area in the sample extract): group 1C (IV dose) pooled urine; for % of total urinary excretion / Total % AD: group 1C (IV dose) urine; for Total % AD: total of all collections
Experimental: Pooled urine samples were prepared for Groups 1C and 2C by mixing a fixed percent of the total volume for all four animals from the selected time points. For Group 1C, samples of the 1-, 2-, 6-, and 24-h collection intervals were pooled. For Group 2C, a pool of samples from all four animals was prepared for the 24 h collection intervals only. For 1-, 2-, and 6 h collection intervals, a urine sample of a single animal of Group 2A or 2B was used for analysis. All samples were brought to room temperature and vortexed briefly. The samples were diluted as necessary (2- to 20-fold) with appropriate aqueous mobile phase for the selected HPLC method. The pooled and diluted samples from the 24 h collection interval were centrifuged at 2040×g for 10 minutes. All other samples were analyzed without centrifugation. HPLC method 1 was used for HPLC profiling. Selected samples were analyzed by HPLC method 2 for comparison with the metabolite profile generated by microsomal and hepatocyte incubations (Examples 14 and 15) and with the metabolite profile of liver extracts.
Percent of the administered dose (% AD) for parent drug and each metabolite at each collection period=(% of the total radioactivity in the sample attributed to the metabolite)*(total radioactivity expressed as % of the administered dose, recovered during the corresponding collection period).
HPLC analyses of pooled urine samples of all time points were conducted for Group 1C. Metabolites R1, R2, R3, R4, R5, R6, R7 and R8 were characterized based on retention time.
For the PO dose group, a pooled urine sample from the 24-h collection time was analyzed. For 1-, 2-, and 6-h collection times, the majority of the samples had been used for radioanalysis. The remaining samples were insufficient for proportional pooling. Therefore, single animal samples of […] groups were used for HPLC profiling. Metabolites R^1, R^2, R^3, R^4, R^5, R^6, R^7 and R^8 were characterized based on retention time.
Table 50 contains data from single animal samples and pooled samples. To estimate overall distribution of urinary metabolites, it was assumed that the profile from a single animal is reflective of the overall average metabolite profile. Therefore, HPLC distribution data from single animals was used to calculate the percentage of administered dose excreted as various metabolites during the 1-, 2-, and 6-h collection intervals. Metabolites R1, R2, R3, R4, R5, R6, R7 and R8 were characterized based on retention time.

## CC(C)(CO)C(=O)SCCOP(=O)(NCc1ccccc1)OC[C@H]1O[C@@H](n2cnc3c(=O)[nH]c(N)nc32)[C@](C)(O)[C@@H]1O (stereo partly shown) [[^14C] Compound 1]
[1]; IV 50 mg/kg, 0 h (pre-dose)
  Plasma total radioactivity concentration, Mean: 0.000 μg Equivalents/mL
[1]; IV 50 mg/kg, 0.083 h
  Plasma total radioactivity concentration, Mean: 43.692 μg Equivalents/mL
[1]; IV 50 mg/kg, 0.25 h
  Plasma total radioactivity concentration, Mean: 9.195 μg Equivalents/mL
[1]; IV 50 mg/kg, 0.5 h
  Plasma total radioactivity concentration, Mean: 4.311 μg Equivalents/mL
[1]; IV 50 mg/kg, 0.75 h
  Plasma total radioactivity concentration, Mean: 1.835 μg Equivalents/mL
[1]; IV 50 mg/kg, 1 h
  Plasma total radioactivity concentration, Mean: 1.399 μg Equivalents/mL
[1]; IV 50 mg/kg, 2 h
  Plasma total radioactivity concentration, Mean: 2.175 μg Equivalents/mL
[1]; IV 50 mg/kg, 4 h
  Plasma total radioactivity concentration, Mean: 0.799 μg Equivalents/mL
[1]; IV 50 mg/kg, 6 h
  Plasma total radioactivity concentration, Mean: 2.652 μg Equivalents/mL
[1]; IV 50 mg/kg, 10 h
  Plasma total radioactivity concentration, Mean: 0.605 μg Equivalents/mL
[1]; IV 50 mg/kg, 24 h
  Plasma total radioactivity concentration, Mean: 0.570 μg Equivalents/mL
[1]; IV 50 mg/kg, Group 1A, 0.25 h, 50 mg/kg
  Plasma total radioactivity concentration: 10.883 μg Equivalents/mL and 9.006 μg Equivalents/mL and 7.913 μg Equivalents/mL and 8.978 μg Equivalents/mL
[1]; IV 50 mg/kg, Group 1A, 1 h, 50 mg/kg
  Plasma total radioactivity concentration: 1.371 μg Equivalents/mL and 1.358 μg Equivalents/mL and 1.600 μg Equivalents/mL and 1.267 μg Equivalents/mL
[1]; IV 50 mg/kg, Group 1A, 2 h, 50 mg/kg
  Plasma total radioactivity concentration: 2.202 μg Equivalents/mL and 1.861 μg Equivalents/mL and 2.545 μg Equivalents/mL and 2.092 μg Equivalents/mL
[1]; IV 50 mg/kg, Group 1B, 0 h (pre-dose)
  Plasma total radioactivity concentration: 0.000 μg Equivalents/mL
[1]; IV 50 mg/kg, Group 1B, 0.75 h, 50 mg/kg
  Plasma total radioactivity concentration: 1.576 μg Equivalents/mL and 1.600 μg Equivalents/mL and 1.710 μg Equivalents/mL and 2.454 μg Equivalents/mL
[1]; IV 50 mg/kg, Group 1B, 4 h, 50 mg/kg
  Plasma total radioactivity concentration: 0.755 μg Equivalents/mL and 0.713 μg Equivalents/mL and 0.938 μg Equivalents/mL and 0.790 μg Equivalents/mL
[1]; IV 50 mg/kg, Group 1B, 6 h, 50 mg/kg
  Plasma total radioactivity concentration: 2.376 μg Equivalents/mL and 2.233 μg Equivalents/mL and 2.160 μg Equivalents/mL and 3.837 μg Equivalents/mL
[1]; IV 50 mg/kg, Group 1C, 0.083 h, 50 mg/kg
  Plasma total radioactivity concentration: 50.653 μg Equivalents/mL and 45.178 μg Equivalents/mL and 35.246 μg Equivalents/mL and 37.600 μg Equivalents/mL
[1]; IV 50 mg/kg, Group 1C, 0.5 h, 50 mg/kg
  Plasma total radioactivity concentration: 4.824 μg Equivalents/mL and 4.036 μg Equivalents/mL and 4.072 μg Equivalents/mL and 3.857 μg Equivalents/mL
[1]; IV 50 mg/kg, Group 1C, 10 h, 50 mg/kg
  Plasma total radioactivity concentration: 0.566 μg Equivalents/mL and 0.675 μg Equivalents/mL and 0.573 μg Equivalents/mL and 0.562 μg Equivalents/mL
[1]; IV 50 mg/kg, Group 1C, 24 h, 50 mg/kg
  Plasma total radioactivity concentration: 0.515 μg Equivalents/mL and 0.759 μg Equivalents/mL and 0.553 μg Equivalents/mL and 0.453 μg Equivalents/mL
[1]; IV 50 mg/kg
  AUC0-24 of plasma total radioactivity: 36.000 μg equivalents · h/mL
[1]; PO 100 mg/kg, 0 h (pre-dose)
  Plasma total radioactivity concentration, Mean: 0.000 μg Equivalents/mL
[1]; PO 100 mg/kg, 0.083 h
  Plasma total radioactivity concentration, Mean: 0.283 μg Equivalents/mL
[1]; PO 100 mg/kg, 0.25 h
  Plasma total radioactivity concentration, Mean: 0.346 μg Equivalents/mL
[1]; PO 100 mg/kg, 0.5 h
  Plasma total radioactivity concentration, Mean: 0.316 μg Equivalents/mL
[1]; PO 100 mg/kg, 0.75 h
  Plasma total radioactivity concentration, Mean: 0.315 μg Equivalents/mL
[1]; PO 100 mg/kg, 4 h
  Plasma total radioactivity concentration, Mean: 0.625 μg Equivalents/mL
[1]; PO 100 mg/kg, 6 h
  Plasma total radioactivity concentration, Mean: 1.331 μg Equivalents/mL
[1]; PO 100 mg/kg, 10 h
  Plasma total radioactivity concentration, Mean: 0.622 μg Equivalents/mL
[1]; PO 100 mg/kg, 24 h
  Plasma total radioactivity concentration, Mean: 0.399 μg Equivalents/mL
[1]; PO 100 mg/kg, Group 2A, 0.25 h, 100 mg/kg
  Plasma total radioactivity concentration: 0.216 μg Equivalents/mL and 0.433 μg Equivalents/mL and 0.474 μg Equivalents/mL and 0.260 μg Equivalents/mL
[1]; PO 100 mg/kg, Group 2B, 0 h (pre-dose)
  Plasma total radioactivity concentration: 0.000 μg Equivalents/mL
[1]; PO 100 mg/kg, Group 2B, 0.75 h, 100 mg/kg
  Plasma total radioactivity concentration: 0.346 μg Equivalents/mL and 0.327 μg Equivalents/mL and 0.331 μg Equivalents/mL and 0.256 μg Equivalents/mL
[1]; PO 100 mg/kg, Group 2B, 4 h, 100 mg/kg
  Plasma total radioactivity concentration: 0.578 μg Equivalents/mL and 0.618 μg Equivalents/mL and 0.675 μg Equivalents/mL and 0.630 μg Equivalents/mL
[1]; PO 100 mg/kg, Group 2B, 6 h, 100 mg/kg
  Plasma total radioactivity concentration: 1.157 μg Equivalents/mL and 1.163 μg Equivalents/mL and 1.522 μg Equivalents/mL and 1.480 μg Equivalents/mL
[1]; PO 100 mg/kg, Group 2C, 0.083 h, 100 mg/kg
  Plasma total radioactivity concentration: 0.228 μg Equivalents/mL (2×) and 0.394 μg Equivalents/mL and 0.596 μg Equivalents/mL
[1]; PO 100 mg/kg, Group 2C, 0.5 h, 100 mg/kg
  Plasma total radioactivity concentration: 0.236 μg Equivalents/mL and 0.335 μg Equivalents/mL and 0.378 μg Equivalents/mL and 0.408 μg Equivalents/mL
[1]; PO 100 mg/kg, Group 2C, 10 h, 100 mg/kg
  Plasma total radioactivity concentration: 0.806 μg Equivalents/mL and 0.555 μg Equivalents/mL and 0.506 μg Equivalents/mL and 0.511 μg Equivalents/mL
[1]; PO 100 mg/kg, Group 2C, 24 h, 100 mg/kg
  Plasma total radioactivity concentration: 0.450 μg Equivalents/mL and 0.303 μg Equivalents/mL and 0.458 μg Equivalents/mL and 0.384 μg Equivalents/mL
[1]; PO 100 mg/kg
  AUC0-24 of plasma total radioactivity: 15.445 μg equivalents · h/mL

## CC(C)(CO)C(=O)SCCOP(N)(=O)OC[C@H]1O[C@@H](n2cnc3c(=O)[nH]c(N)nc32)[C@](C)(O)[C@@H]1O (single isomer, unassigned; diastereomer 1) [Compd 3 Diastereomer 1]
[2]; 1 h collection
  % AD (percent of administered dose): 0.05 % AD
  % HPLC (percent of HPLC peak area in the sample extract): 0.24%
[2]; 2 h collection
  % AD (percent of administered dose): 0.05 % AD
  % HPLC (percent of HPLC peak area in the sample extract): 1.01%
[2]; 6 h collection
  % AD (percent of administered dose): 0.01 % AD
  % HPLC (percent of HPLC peak area in the sample extract): 0.37%
[2]
  % of total urinary excretion: 0.25%
  Total % AD: 0.12 % AD

## CC(C)(CO)C(=O)SCCOP(N)(=O)OC[C@H]1O[C@@H](n2cnc3c(=O)[nH]c(N)nc32)[C@](C)(O)[C@@H]1O (single isomer, unassigned; diastereomer 2) [Compd 3 Diastereomer 2]
[2]; 1 h collection
  % AD (percent of administered dose): 0.23 % AD
  % HPLC (percent of HPLC peak area in the sample extract): 1.00%
[2]; 2 h collection
  % AD (percent of administered dose): 0.14 % AD
  % HPLC (percent of HPLC peak area in the sample extract): 2.69%
[2]; 6 h collection
  % AD (percent of administered dose): 0.03 % AD
  % HPLC (percent of HPLC peak area in the sample extract): 1.19%
[2]
  % of total urinary excretion: 0.84%
  Total % AD: 0.39 % AD
